Experimental data: article PMC12746157, “Light-Regulated Agonists Spatiotemporally Activating the Vitamin D Receptor Mitigate Psoriasis-like Inflammation in Mice without Inducing Hypercalcemia” (ACS Central Science, 2025)

Tests used:
[1] = UV-Vis absorption spectra and thermal relaxation of the cis isomers in DMSO; assay type: physicochemical; conditions: 60 μM in 100% DMSO, 37 °C; for λn−π* (cis): after illumination; for λπ–π* (trans): dark
Protocol: (§1) The UV–vis absorbance spectra of all molecules were measured in the dark and after the application of light of different wavelengths ranging from 365 to 770 nm (Figure A and Figures S1–S3). […] Consequently, violet/UV light below 405 nm efficiently promoted photoisomerization, which produced a dramatic decrease in the π-π* band and a significant increase in the n-π* band at around 445 nm (Table ). […] The proportion of molecules at the PSS in trans isomer upon constant illumination with light at 525 nm and cis at 365 nm was in general above 50%, reaching a remarkable >99% for compound 11d (Table and Figures S4 and S5). […] The greater stability of the trans isomer was consistent with previous quantum mechanical and molecular mechanics predictions. Measuring the photoisomerization properties of compound PhotoVDRM allowed us to determine the photoisomerization quantum yields of the compound by solving a differential equation for photoisomerization. We used MATLAB to perform regression and arrive at the following photoisomerization quantum yields: ϕ365 nm (trans) = 0.0427, ϕ365 nm (cis) = 0.0501, ϕ470 nm (trans) = 0.1857, and ϕ470 nm (cis) = 0.2281 (Figure S9). Compound PhotoVDRM was also evaluated in aqueous buffer used for pharmacological experiments (0.5% DMSO) showing a thermal relaxation of 3 h, almost 7 times faster than in pure DMSO (Figure B). […] A deeper photocharacterization of PhotoVDRM allowed us to measure the kinetics of photoconversion upon constant illumination with two wavelengths and three light intensities (Figure D and Figure S10). […] Indeed, with LED devices producing light at intensities as low as 0.05 mW/mm^2 we were able to transform trans to cis in around 15.5 s. This time was reduced to 6 and 2 s when the light intensity was increased to 0.15 and 0.75 mW/mm^2. […] Therefore, we proceeded to test the ability of the chemical library to activate the VDR under different light conditions.
2. Photochemical characterization. […]
(200 µL per well). The absorption spectra were recorded from 300 to 600 nm with 2 nm fixed intervals using a Tecan Spark 20M Multimode microplate reader. Initial measurements were performed in the dark, followed by spectra acquired immediately after each 3 min period of light irradiation at different wavelengths using 96-well LED array plates (LEDA Teleopto). Theoretical absorbance spectra corresponding to the pure cis isomer (100%) of each compound were calculated in order to obtain the theoretical percentage of cis isomer at each wavelength, according to the method described by Ernst Fischer (1967). Thermal relaxation kinetics of the experimental cis isomers were assessed in quartz cuvettes (10 mm optical path) containing freshly prepared 50 […]
Dark state absorbance at 365 nm was recorded at 37
ºC using a ThermoFisher Evolution 350 UV-Vis spectrophotometer. Samples were then irradiated for 3 minutes at 365 nm with a CoolLED pE-4000 light sourceto induce trans → cis photoisomerization.. Absorbance at 365 nm was subsequently monitored over 48 h: every 15 min during the first 24 h, and every 60 min during the following 24 h. Relaxation half-lives were determined by fitting the absorbance-time data to a […] exponential model using GraphPad Prism v10.4.1. […]

[2] = Photostationary state (PSS) determination by HPLC-MS in aqueous assay buffer; assay type: physicochemical; conditions: for PSS365 (% cis) / PSS525 (%trans): 21 °C, HPLC-MS, 60 μM, aqueous buffer 0.6% DMSO; for PSS365 (% cis): 3 min illumination 365 nm; for PSS525 (%trans): 3 min illumination 525 nm
Protocol: as §1
Photostationary state (PSS) determination. In a transparent vial, solutions of the compounds were prepared at a concentration of 60 µM from a 10 mM stock in DMSO, using the assay buffer of pharmacological experiments for dilution. Prior to illumination, a volume of 500 µL was transferred to an amber vial for the "dark" sample. The same procedure was repeated after exposing the transparent vial containing the 60 µM solutions to the following light conditions:
365nm for 3 minutes and 525nm for 3 minutes. […]
difference on isomeric proportions. For each sample, 20 µL was analyzed by HPLC-MS, and the isomer ratios were determined at the isosbestic point.
Isosbestic point determination. The solvent percentage for the elution of each isomer were calculated based on their retention times from HPLC analysis. Subsequently, 50 µM solutions were prepared from the 10 mM DMSO stock solution of each compound using the previously determined HPLC solvent mixture. The UV spectrum for each solution was recorded after illumination at 365 nm (30 seconds), at 400 nm (30 seconds), and at 525 nm (30 seconds). The spectra were overlaid to identify the isosbestic point of maximum intensity.
HPLC conditions. Analytical HPLC was performed on a Thermo Ultimate 3000SD (Thermo Scientific Dionex) coupled to a PDA detector and Mass Spectrometer LTQ XL ESI-ion trap (Thermo Scientific). Cromatographic separations were performed using a ZORBAX Eclipse Plus C18 (4.6 x 150mm; 3.5µm) column. The mobile phase consisted of an isocratic mixture of solvent A (water with 0.05% of formic acid) and solvent B (acetonitrile with 0.05% formic acid) at a 3:7 ratio for compounds 10a-d and a 2:3 ratio for compounds 11a-d and 12a-d. […]

SMILES | t 1/2 (thermal relaxation of cis) [1] | λn−π* (cis) [1] | λπ–π* (trans) [1] | PSS365 (% cis) [2] | PSS525 (%trans) [2] | proportion of cis at PSS 460 nm ([2]; 460 nm, assay buffer (Figure S4D))
COC(=O)c1ccc(-c2cccc(/N=N/c3ccc(OCC(O)C(C)(C)C)c(C)c3)c2)cc1 (centres unmarked) [Compound 10a] | 9.3 h | 446 nm | 366 nm | 83% | 86% | 
COC(=O)c1ccc(-c2cccc(/N=N/c3ccc(OCC(O)C(C)(C)C)cc3C)c2)cc1 (centres unmarked) [Compound 10b] | 7.6 h | 440 nm | 360 nm | 78% | 73% | 
COC(=O)c1ccc(-c2cccc(/N=N/c3ccc(OCC(O)C(C)(C)C)c(C)c3)c2)c(C)c1 (centres unmarked) [Compound 10c] | 12.5 h | 444 nm | 366 nm | 73% | 83% | 
COC(=O)c1ccc(-c2cccc(/N=N/c3ccc(OCC(O)C(C)(C)C)cc3C)c2)c(C)c1 (centres unmarked) [Compound 10d] | 8.2 h | 438 nm | 360 nm | 88% | 81% | 
Cc1cc(/N=N/c2cccc(-c3ccc(C(=O)O)cc3)c2)ccc1OCC(O)C(C)(C)C (centres unmarked) [Compound 11a] | 9.1 h | 440 nm | 366 nm | 94% | 74% | 
Cc1cc(OCC(O)C(C)(C)C)ccc1N=Nc1cccc(-c2ccc(C(=O)O)cc2)c1 (centres unmarked) [Compound 11b] | 20.5 h | 442 nm | 362 nm | 95% | 55% | 63%
Cc1cc(/N=N/c2cccc(-c3ccc(C(=O)O)cc3C)c2)ccc1OCC(O)C(C)(C)C (centres unmarked) [Compound 11c] | 25.4 h | 444 nm | 364 nm | 96% | 84% | 
Cc1cc(OCC(O)C(C)(C)C)ccc1/N=N/c1cccc(-c2ccc(C(=O)O)cc2C)c1 (centres unmarked) [Compound 11d] | 17.7 h | 444 nm | 362 nm | >99% | 61% | 
Cc1cc(/N=N/c2cccc(-c3ccc(CO)cc3)c2)ccc1OCC(O)C(C)(C)C (centres unmarked) [Compound 12a] | 9.1 h | 444 nm | 364 nm | 80% | 87% | 
Cc1cc(OCC(O)C(C)(C)C)ccc1/N=N/c1cccc(-c2ccc(CO)cc2)c1 (centres unmarked) [Compound 12b] | 6.8 h | 444 nm | 362 nm | 84% | 84% | 
Cc1cc(OCC(O)C(C)(C)C)ccc1/N=N/c1cccc(-c2ccc(CO)cc2C)c1 (centres unmarked) [Compound 12d] | 8.2 h | 446 nm | 362 nm | 88% | 82% | 
